# Values of other authors in patent US12102063B2 (SYNEXIS LLC, priority 2017, dated 2024).
# Assays:
# Salmonella typhimurium = conditions: eggs dipped twice in 6% H2O2 solution; cited from earlier work
# [1] = system: bacterial counts on eggshells; conditions: 3% solution combined with ultraviolet light; cited from earlier work
# Salmonella = conditions: […] solution with vacuum and surfactant; cited from earlier work
compound,measurement,setting,value
"OO [H2O2, hydrogen peroxide]",reduction of the number of Salmonella in eggshell membranes,Salmonella typhimurium,95%
same,reduction of the numbers of positive eggs,Salmonella typhimurium,55%
same,reduction in bacterial counts (cfu/egg),[1],≤ 3 log
same,treated eggs that remained contaminated,Salmonella,30%
